PMC10518257 (Nature Cancer, 2023)
Values joined by “and” are separate entries in the source; they are usually repeats but may differ in a detail not shown here. Identical values can stand only once.

Legend:
LUAD-0057AS1 PDX = assay: PDX efficacy study
LUAD-0087AS2 PDX = assay: PDX efficacy study; details: LUAD-0087AS2, 30 mg/kg BID, individual animals

Compound: COc1cc2nccc(Oc3ccc(NC(=O)C4(C(=O)Nc5ccc(F)cc5)CC4)cc3)c2cc1OC [Cabozantinib]
- tumor shrinkage (LUAD-0057AS1 PDX; 30 mg per kg QD): did not lead to any tumor shrinkage
- Area Under Curve of tumor growth, Mean (LUAD-0057AS1 PDX; 30 mg/kg QD): 1051
- Tumor volume (LUAD-0057AS1 PDX; 30 mg/kg QD, day 0, individual animals): 139.24 mm3 and 130.83 mm3 and 132.84 mm3 and 134.85 mm3 and 137.16 mm3 and 136.86 mm3 and 128.59 mm3 (2×)
- Tumor volume (LUAD-0057AS1 PDX; 30 mg/kg QD, day 3, individual animals): 143.69 mm3 (2×) and 141.55 mm3 and 159.83 mm3 and 157.37 mm3 and 161.94 mm3 and 155.09 mm3 and 150.43 mm3
- Tumor volume (LUAD-0057AS1 PDX; 30 mg/kg QD, day 7, individual animals): 150.13 mm3 and 145.84 mm3 and 157.07 mm3 and 171.9 mm3 and 159.66 mm3 and 132.84 mm3 and 161.94 mm3 and 154.85 mm3
- Tumor volume (LUAD-0057AS1 PDX; 30 mg/kg QD, day 10, individual animals): 150.13 mm3 and 154.85 mm3 (2×) and 171.06 mm3 and 197.55 mm3 and 217.15 mm3 and 132.84 mm3 and 165.92 mm3
- Tumor volume (LUAD-0057AS1 PDX; 30 mg/kg QD, day 14, individual animals): 150.13 mm3 and 176.28 mm3 and 188.03 mm3 (3×) and 224.35 mm3 and 288.71 mm3 and 168.78 mm3
- Tumor volume (LUAD-0057AS1 PDX; 30 mg/kg QD, day 19, individual animals): 150.13 mm3 and 183.33 mm3 and 195.09 mm3 and 204.49 mm3 and 294.92 mm3 and 176.28 mm3 and 193.69 mm3 and 188.03 mm3
- Tumor volume (LUAD-0057AS1 PDX; 30 mg/kg QD, day 23, individual animals): 194.67 mm3 and 219.37 mm3 and 246.79 mm3 and 251.12 mm3 and 340.1 mm3 and 242.75 mm3 and 230.72 mm3 and 228.34 mm3
- Change in Tumor Volume (LUAD-0057AS1 PDX; 30 mg/kg QD, end of study, individual tumors): 39.809% and 67.6756% and 85.7799% and 86.2217% and 147.959% and 77.371% and 79.423% and 77.5721%

Compound: COC1(C(=O)NC(C)c2ccc(-n3cc(F)cn3)nc2)CCC(c2nc(C)cc(Nc3cc(C)[nH]n3)n2)CC1 (stereo not drawn) [Prasletinib]
- Tumor volume (LUAD-0087AS2 PDX; treatment day 0): 122.74 and 122.52 (2×) and 118.47 (2×)
- Tumor volume (LUAD-0087AS2 PDX; treatment day 3): 116.87 and 110.97 (2×) and 118.47 and 114.83
- Tumor volume (LUAD-0087AS2 PDX; treatment day 7): 100.16 and 96.62 (2×) and 101.37 and 91.61
- Tumor volume (LUAD-0087AS2 PDX; treatment day 10): 100.16 and 103.77 and 96.62 and 99.78 and 95.03
- Tumor volume (LUAD-0087AS2 PDX; treatment day 14): 96.88 and 83.83 and 88.25 and 99.78 and 90.28
- Tumor volume (LUAD-0087AS2 PDX; treatment day 17): 103.77 and 79.42 and 83.83 (2×) and 96.62
- Tumor volume (LUAD-0087AS2 PDX; treatment day 21): 90.28 and 70.82 and 74.9 and 83.83 (2×)
- Tumor volume (LUAD-0087AS2 PDX; treatment day 24): 74.9 and 54.36 and 71.99 (2×) and 58.99
- Tumor volume (LUAD-0087AS2 PDX; treatment day 29): 72.18 and 54.36 and 71.99 and 57.83 and 56.67
- Tumor volume (LUAD-0087AS2 PDX; treatment day 32): 75.04 and 60.32 (2×) and 74.9 and 57.83
- Tumor volume (LUAD-0087AS2 PDX; treatment day 35): 75.04 and 60.32 and 74.9 (2×) and 57.83
- Tumor volume (LUAD-0087AS2 PDX; treatment day 38): 75.04 and 60.32 and 77.63 and 90.28 and 57.83
- Tumor volume (LUAD-0087AS2 PDX; treatment day 42): 77.87 and 68.07 and 77.63 and 90.28 and 60.32
- Tumor volume (LUAD-0087AS2 PDX; treatment day 45): 77.87 and 68.07 and 70.69 (2×) and 60.32
